Results published in ChEMBL document CHEMBL1201862, “PubChem BioAssay data set” (2004).
Calls of active or inactive are those of the source.

Legend:
[1] = target: Transitional endoplasmic reticulum ATPase (Homo sapiens, UniProt P55072, C522A); assay: Luminescence counterscreen assay for p97 inhibitors: dose response biochemical high throughput screening assay to identify inhibitors of the C522A mutant p97 ATPase: synthesized compounds. [Related pubchem assays: 1481, 1517, 1551 ]
[2] = target: Transitional endoplasmic reticulum ATPase (Homo sapiens, UniProt P55072); assay: Luminescence dose response biochemical high throughput screening assay for inhibitors of the p97 ATPase: synthesized compounds. [Related pubchem assays: 1481, 1517 ]
[3] = growth suppression of PTEN-null colon cells, dose response, cell-based, HCT116 PTEN knockout (AID 1047); format: functional;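 further: HCT116 colon tumor cells with PTEN knocked out; cells exposed to compound for 60 hours before readout; potency for loss of cell viability measured by luminescence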
[4] = HeLa cell cytotoxicity, dose response, cytotoxicity control for MgcRacGAP inhibitor project (AID 624300); format: functional
Vero = Vero cell cytotoxicity, cytotoxicity control for flavivirus capping enzyme inhibitors (AID 588742); format: functional; details: Chlorocebus sabaeus
Galanin receptor type 2 = Galanin receptor type 2 (Homo sapiens, UniProt O43603); assay: Dose Response cell-based high-throughput screening assay to identify antagonists of galanin receptor 2 (GALR2). [Related pubchem assays: 828, 866 ]; format: functional
[5] = growth suppression of beta-catenin-knockout colon cells, dose response, cell-based, HCT116, human colon tumor (AID 1045); format: functional;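 further: HCT116 colon tumor cells with beta catenin knocked out; cells exposed to compound for 60 hours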
Nonstructural protein 1 = Nonstructural protein 1 (Influenza A virus, UniProt Q194T2); format: functional, Influenza A virus (A/California/07/2009(H1N1))
[6] = target: T1, Rac GTPase-activating protein 1 (Homo sapiens, UniProt Q9H0H5); assay: MgcRacGAP GTPase-activating activity inhibitors, confirmation, biochemical, ADP Hunter fluorescence, primary and confirmatory (AID 624330); format: functional
T1 sequence (Q9H0H5 whole entry): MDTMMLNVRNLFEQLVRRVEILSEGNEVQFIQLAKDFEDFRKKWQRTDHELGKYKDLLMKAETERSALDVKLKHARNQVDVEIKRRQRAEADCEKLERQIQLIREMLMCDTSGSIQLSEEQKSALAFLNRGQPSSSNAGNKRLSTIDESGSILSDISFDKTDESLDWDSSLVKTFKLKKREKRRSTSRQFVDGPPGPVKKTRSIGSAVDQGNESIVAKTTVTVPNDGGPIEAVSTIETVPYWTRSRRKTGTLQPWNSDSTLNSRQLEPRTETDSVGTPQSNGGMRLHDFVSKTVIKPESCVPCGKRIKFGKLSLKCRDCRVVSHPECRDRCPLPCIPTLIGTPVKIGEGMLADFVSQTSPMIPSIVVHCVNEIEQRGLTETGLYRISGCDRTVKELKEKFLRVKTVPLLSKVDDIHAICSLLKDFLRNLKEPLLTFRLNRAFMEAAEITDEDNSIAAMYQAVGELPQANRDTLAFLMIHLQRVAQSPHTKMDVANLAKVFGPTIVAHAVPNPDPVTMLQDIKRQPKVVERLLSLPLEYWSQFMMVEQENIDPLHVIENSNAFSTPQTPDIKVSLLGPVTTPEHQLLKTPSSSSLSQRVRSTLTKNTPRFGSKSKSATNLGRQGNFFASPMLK

[7] = target: T2, Mannose-6-phosphate isomerase (Homo sapiens, UniProt P34949); assay: human PMI inhibitors, high substrate, primary screen, biochemical, fluorescence intensity, high mannose 6-phosphate (AID 1220)
T2 sequence (P34949 whole entry): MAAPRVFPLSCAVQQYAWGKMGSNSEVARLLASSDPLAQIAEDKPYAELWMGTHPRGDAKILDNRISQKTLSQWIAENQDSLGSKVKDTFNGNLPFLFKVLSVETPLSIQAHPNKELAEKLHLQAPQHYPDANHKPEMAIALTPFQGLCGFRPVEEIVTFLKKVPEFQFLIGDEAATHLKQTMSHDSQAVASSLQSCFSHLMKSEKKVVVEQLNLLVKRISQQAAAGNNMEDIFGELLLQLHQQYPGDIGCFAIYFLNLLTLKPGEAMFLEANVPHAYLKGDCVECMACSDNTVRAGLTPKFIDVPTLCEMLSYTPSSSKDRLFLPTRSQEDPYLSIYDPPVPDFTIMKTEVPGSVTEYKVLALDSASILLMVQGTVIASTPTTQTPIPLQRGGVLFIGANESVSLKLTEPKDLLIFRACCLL

[8] = target: T3, Histone-lysine N-methyltransferase NSD2 (Homo sapiens, UniProt O96028); format: biochemical
T3 sequence (O96028 whole entry): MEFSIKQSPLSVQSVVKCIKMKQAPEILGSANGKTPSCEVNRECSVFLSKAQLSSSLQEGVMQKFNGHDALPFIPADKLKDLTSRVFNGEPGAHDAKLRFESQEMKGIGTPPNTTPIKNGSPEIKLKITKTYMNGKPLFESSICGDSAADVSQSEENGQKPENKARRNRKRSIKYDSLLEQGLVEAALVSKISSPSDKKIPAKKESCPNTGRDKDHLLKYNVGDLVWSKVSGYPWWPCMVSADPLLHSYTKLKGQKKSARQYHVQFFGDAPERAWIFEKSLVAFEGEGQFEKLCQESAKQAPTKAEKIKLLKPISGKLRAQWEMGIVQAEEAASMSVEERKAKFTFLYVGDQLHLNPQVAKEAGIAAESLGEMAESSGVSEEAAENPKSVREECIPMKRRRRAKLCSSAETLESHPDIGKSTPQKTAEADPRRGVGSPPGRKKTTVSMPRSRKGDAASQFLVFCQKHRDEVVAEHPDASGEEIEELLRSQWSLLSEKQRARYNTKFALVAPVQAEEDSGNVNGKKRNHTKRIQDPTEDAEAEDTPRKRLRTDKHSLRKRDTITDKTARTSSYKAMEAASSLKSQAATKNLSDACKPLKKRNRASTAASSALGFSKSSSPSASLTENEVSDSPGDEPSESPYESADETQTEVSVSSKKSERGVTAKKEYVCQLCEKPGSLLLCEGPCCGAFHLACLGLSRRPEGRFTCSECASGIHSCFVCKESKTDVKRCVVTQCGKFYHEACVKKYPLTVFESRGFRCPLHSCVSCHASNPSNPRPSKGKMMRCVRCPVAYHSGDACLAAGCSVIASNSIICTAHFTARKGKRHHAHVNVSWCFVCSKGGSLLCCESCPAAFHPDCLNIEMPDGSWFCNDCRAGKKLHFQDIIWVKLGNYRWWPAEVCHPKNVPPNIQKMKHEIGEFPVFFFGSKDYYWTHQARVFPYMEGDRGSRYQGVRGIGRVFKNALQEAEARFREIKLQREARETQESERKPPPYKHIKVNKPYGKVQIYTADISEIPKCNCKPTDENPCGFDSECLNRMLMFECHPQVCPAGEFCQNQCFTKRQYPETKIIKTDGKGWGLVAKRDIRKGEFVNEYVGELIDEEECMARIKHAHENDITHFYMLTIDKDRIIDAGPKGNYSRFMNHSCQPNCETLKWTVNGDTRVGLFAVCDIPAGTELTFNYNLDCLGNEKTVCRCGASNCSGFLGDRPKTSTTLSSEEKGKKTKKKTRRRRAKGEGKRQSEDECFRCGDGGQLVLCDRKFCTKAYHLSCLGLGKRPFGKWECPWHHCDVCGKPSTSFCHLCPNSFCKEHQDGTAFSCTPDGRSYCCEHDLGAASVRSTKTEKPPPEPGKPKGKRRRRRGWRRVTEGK

Nonstructural protein 1, sequence (Q194T2 whole entry): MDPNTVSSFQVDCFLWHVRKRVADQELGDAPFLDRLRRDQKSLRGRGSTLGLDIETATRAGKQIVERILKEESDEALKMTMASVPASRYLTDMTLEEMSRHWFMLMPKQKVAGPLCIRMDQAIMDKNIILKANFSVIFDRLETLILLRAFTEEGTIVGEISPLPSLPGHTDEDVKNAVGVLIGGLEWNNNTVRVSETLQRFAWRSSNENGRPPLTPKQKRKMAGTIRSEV
Galanin receptor type 2, sequence (O43603 whole entry): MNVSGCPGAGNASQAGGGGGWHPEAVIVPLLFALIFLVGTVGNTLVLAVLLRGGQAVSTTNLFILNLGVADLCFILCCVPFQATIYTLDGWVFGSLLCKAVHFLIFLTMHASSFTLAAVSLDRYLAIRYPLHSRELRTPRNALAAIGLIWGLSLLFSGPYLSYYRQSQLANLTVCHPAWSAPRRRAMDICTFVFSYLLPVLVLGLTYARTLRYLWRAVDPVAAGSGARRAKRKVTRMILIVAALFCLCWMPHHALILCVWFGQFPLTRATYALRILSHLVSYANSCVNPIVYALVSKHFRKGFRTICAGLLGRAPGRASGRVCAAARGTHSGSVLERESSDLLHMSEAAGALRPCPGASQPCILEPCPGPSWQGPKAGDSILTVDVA
Transitional endoplasmic reticulum ATPase (Homo sapiens, UniProt P55072, C522A), sequence (P55072 2-806 C522A limits assumed): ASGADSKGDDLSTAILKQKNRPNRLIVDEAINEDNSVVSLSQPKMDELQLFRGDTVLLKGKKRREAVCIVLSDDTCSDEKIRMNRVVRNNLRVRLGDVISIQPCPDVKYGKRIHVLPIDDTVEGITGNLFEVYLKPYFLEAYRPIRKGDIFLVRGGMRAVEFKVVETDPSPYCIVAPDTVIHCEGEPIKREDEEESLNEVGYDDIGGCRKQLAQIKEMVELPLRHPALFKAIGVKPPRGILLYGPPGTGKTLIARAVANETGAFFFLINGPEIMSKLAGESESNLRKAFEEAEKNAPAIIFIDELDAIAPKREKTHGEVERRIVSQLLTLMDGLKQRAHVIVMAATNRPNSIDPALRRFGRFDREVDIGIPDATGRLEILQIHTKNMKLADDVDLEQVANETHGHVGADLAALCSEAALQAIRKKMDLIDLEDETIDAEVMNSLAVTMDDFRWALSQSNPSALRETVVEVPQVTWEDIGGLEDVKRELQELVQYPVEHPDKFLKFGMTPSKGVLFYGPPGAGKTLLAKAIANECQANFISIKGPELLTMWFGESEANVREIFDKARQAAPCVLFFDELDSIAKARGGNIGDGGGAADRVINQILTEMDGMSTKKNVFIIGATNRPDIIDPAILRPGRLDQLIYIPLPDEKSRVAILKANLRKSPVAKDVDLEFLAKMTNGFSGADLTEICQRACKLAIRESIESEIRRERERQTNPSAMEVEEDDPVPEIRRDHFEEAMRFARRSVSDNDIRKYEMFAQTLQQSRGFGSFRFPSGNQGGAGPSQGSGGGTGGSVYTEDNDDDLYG
Transitional endoplasmic reticulum ATPase (Homo sapiens, UniProt P55072), sequence (P55072 whole entry): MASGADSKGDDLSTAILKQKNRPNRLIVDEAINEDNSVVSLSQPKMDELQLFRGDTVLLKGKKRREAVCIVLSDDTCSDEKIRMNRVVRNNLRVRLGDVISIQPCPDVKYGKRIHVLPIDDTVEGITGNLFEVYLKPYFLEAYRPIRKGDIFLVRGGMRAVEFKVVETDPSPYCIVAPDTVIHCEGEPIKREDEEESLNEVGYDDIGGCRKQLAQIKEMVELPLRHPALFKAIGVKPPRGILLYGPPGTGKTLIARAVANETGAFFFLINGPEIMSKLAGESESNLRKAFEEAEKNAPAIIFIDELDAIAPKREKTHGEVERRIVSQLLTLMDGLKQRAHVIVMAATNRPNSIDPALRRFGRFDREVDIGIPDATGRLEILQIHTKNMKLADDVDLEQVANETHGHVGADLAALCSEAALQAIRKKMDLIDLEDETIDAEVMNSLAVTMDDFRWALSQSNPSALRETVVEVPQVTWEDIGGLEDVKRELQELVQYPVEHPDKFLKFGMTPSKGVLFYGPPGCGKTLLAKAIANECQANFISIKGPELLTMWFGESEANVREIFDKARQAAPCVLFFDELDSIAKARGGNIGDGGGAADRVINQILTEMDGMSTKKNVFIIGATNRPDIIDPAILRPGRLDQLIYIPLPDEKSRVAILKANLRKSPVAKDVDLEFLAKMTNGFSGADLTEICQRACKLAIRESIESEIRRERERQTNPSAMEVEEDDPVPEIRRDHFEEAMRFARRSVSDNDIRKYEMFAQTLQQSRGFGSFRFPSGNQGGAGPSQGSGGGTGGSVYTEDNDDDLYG

Compound | IC50 [1] | IC50 [2] | EC50 [3] | CC50 [4] | CC50 (Vero) | IC50 (Galanin receptor type 2) | EC50 [5] | IC50 (Nonstructural protein 1) | IC50 [6] | IC50 [7] | AC50 [8]
CCOC(=O)/C(C#N)=C/c1c2ccccc2cc2ccccc12 | > 50 µM (not active) | > 50 µM (not active) | – | – | – | – | – | – | – | – | –
CN(C)c1ccc(NC2=C(Cl)C(=O)c3ccccc3C2=O)cc1 | – | – | 6.29 µM (active) | 16.1 µM (active) | 32.2 µM (active) | 8.84 µM (active) | 3.94 µM (active) | 7.36 µM (active) | 122 µM (active) | > 50 µM (not active) | 5.02 µM (active)
